One block for each molecule: values may come before it.
Target: T1, ER-alpha (WT) (Homo sapiens, UniProt P03372)
T1 construct: endogenous in cells; host or cells: MCF7 breast cancer cells
T1 sequence (P03372 1-595): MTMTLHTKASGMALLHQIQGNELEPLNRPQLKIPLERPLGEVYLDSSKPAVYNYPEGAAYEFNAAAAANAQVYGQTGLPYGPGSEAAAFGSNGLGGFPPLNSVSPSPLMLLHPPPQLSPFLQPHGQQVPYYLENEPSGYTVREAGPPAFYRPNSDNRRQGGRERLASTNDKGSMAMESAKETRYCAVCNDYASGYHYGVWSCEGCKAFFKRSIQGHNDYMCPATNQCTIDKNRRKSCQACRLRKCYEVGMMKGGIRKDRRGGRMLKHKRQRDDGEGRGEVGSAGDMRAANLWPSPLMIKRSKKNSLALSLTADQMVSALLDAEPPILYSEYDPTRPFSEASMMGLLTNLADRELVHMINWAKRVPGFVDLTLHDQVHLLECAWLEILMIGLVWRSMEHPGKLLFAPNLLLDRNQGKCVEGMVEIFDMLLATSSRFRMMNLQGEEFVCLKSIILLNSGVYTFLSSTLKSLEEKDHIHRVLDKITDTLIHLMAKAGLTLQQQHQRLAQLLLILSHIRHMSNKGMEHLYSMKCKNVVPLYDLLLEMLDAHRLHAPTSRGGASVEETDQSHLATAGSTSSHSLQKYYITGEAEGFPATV
Assay: Breast Cancer Cell ERa High Content Fluorescence Imaging Degradation Assay (MCF7 HCS)
Assay type: cell-based
Conditions: MCF7 breast cancer cells, 4 hours incubation; for EC50: inflexion point of curve; for ERalpha (WT) MCF7 HCS (S inf): plateau of the maximal effect, DMSO and Fulvestrant define 0% and 100% changes in ESR1
Method: MCF7 breast cancer cells were seeded on day 1 at a density of 10,000 cells per well in 384 well poly-lysine coated tissue culture plate (Greiner #T-3101-4), in 50 μL/well RPMI (phenol red free), 10% FBS (Charcoal stripped), containing L-glutamine. […] Compounds and controls were dispensed using a Labcyte Echo acoustic dispenser to dispense compounds with a predefined serial dilution (1.8×, 10 point, in duplicate) and appropriate backfill and control compounds (final total volume transferred was 417.5 nL and compound dispense volume ranges from 2.5 nL to 417.5 nL; 0.84% DMSO (v/v) final), ultimately producing a concentration range from 0.05 nM to 835 nM. Cell plates were incubated at 37° C., for 4 hours. Fixation and permeabilization were carried out using a Biotek EL406 plate washer and dispenser as follows. Cells were fixed by addition of 15 μL of 16% paraformaldehyde (Electron Microscopy Sciences #15710-S) directly to the 50 μL cell culture medium in each well using the peristaltic pump 5 μL cassette on a Biotek EL406 (final concentration of formaldehyde was 3.7% w/v). Samples were incubated 30 minutes. Well contents was aspirated and 50 μL/well of Phosphate Buffered Saline (PBS) containing 0.5% w/v bovine serum albumen, 0.5% v/v Triton X-100 (Antibody Dilution Buffer) was added to each well. Samples were incubated for 30 minutes. Well contents were aspirated and washed 3 times with 100 μL/well of PBS. Immunofluorescence staining of estrogen receptor alpha (ESR1) was carried out using a Biotek EL406 plate washer and dispenser as follows. The well supernatant was aspirated from the wells and 25 μL/well of anti-ESR1 mAb (F10) (Santa Cruz sc-8002) diluted 1:1000 in Antibody Dilution Buffer was dispensed. Samples were incubated for 2 hours at room temperature. Samples were washed 4 times with 100 μL/well of PBS. 25 μL (microliters)/well of secondary antibody solution (Alexafluor® 488 conjugate anti-mouse IgG (LifeTechnologies #A21202) diluted 1:1000 and Hoechst 33342 1 μg/mL diluted in Antibody Dilution Buffer) were dispensed into each well. Samples were incubated for 2 hours at room temperature. Samples were washed 3 times with 100 μL/well of PBS using a Biotek EL406. Quantitative fluorescence imaging of ESR1 was carried out using a Cellomics Arrayscan V® (Thermo). Fluorescence images of the samples (Channel 1: XF53 Hoechst (DNA stain); Channel 2: XF53 FITC (ESR1 stain)) were acquired using a Cellomics VTI Arrayscan using the Bioapplication “Compartmental Analysis” using the auto-exposure (based on DMSO control wells) setting “peak target percentile” set to 25% target saturation for both channels. Channel 1 (DNA stain) was used to define the nuclear region (Circ). Measurements of “Mean_CircAvgIntCh2”, which is the Alexafluor 488 fluorescence intensity (ESR1) within the nuclear region, was measured on a per cell basis and averaged over all the measured cells. Data analysis was carried out using Genedata Screener Software, with DMSO and 5 nM Fulvestrant treated samples being used to define the 0% and 100% changes in ESR1. The “Robust Fit” method was used to define the inflexion point of curve (EC50) and the plateau of the maximal effect (Sinf).

Structure (SMILES): C[C@H]1Cc2cc(O)ccc2[C@H](c2ccc(OCCN3CC(CF)C3)cc2)N1CC(F)(F)CO [Example 165, (1S,3S)-2-(2,2-Difluoro-3-hydroxypropyl)-1-(4-(2-(3-(fluoromethyl)azetidin-1-yl)ethoxy)phenyl)-3-methyl-1,2,3,4-tetrahydroisoquinolin-6-ol]
EC50: 0.96 nM
ERalpha (WT) MCF7 HCS (S inf): −101%

Structure (SMILES): CC(=O)c1ccc2c(c1)C[C@@H](C)N(CC(F)(F)CO)[C@@H]2c1ccc(OCCN2CC(CF)C2)cc1 (single isomer, unassigned) [Example 175]
EC50: 0.168 nM
ERalpha (WT) MCF7 HCS (S inf): −97%

Structure (SMILES): CC1Cc2c(ccc3c2cnn3CC(C)(C)F)C(c2c(F)cc(OCCN3CC(CF)C3)cc2F)N1CC(C)(C)F (stereo not shown) [Example 122, 6-(2,6-difluoro-4-(2-(3-(fluoromethyl)azetidin-1-yl)ethoxy)phenyl)-3,7-bis(2-fluoro-2-methylpropyl)-8-methyl-6,7,8,9-tetrahydro-3H-pyrazolo[4,3-f]isoquinoline]
EC50: 25.2 nM
ERalpha (WT) MCF7 HCS (S inf): −62%

Structure (SMILES): C[C@H]1Cc2cc(CO)ccc2[C@H](c2ccc(NC3CN(CCCF)C3)cc2)N1CC(F)(F)F (single isomer, unassigned) [Example 169]
EC50: 37 nM
ERalpha (WT) MCF7 HCS (S inf): −60%

Structure (SMILES): CC(C)(F)C(=O)N1CCc2cc(O)ccc2[C@H]1c1ccc(OCCN2CC(CF)C2)cc1 (single isomer, unassigned) [Example 104]
EC50: 0.741 nM
ERalpha (WT) MCF7 HCS (S inf): −90%

Structure (SMILES): CC(C)(F)CN1CCc2cc(O)ccc2[C@]1(c1ccc(OCCN2CC(CF)C2)cc1)C(F)F (single isomer, unassigned) [Example 128]
EC50: 0.075 nM
ERalpha (WT) MCF7 HCS (S inf): −95%

Structure (SMILES): CC(C)(F)CN1CCc2cc(O)ccc2[C@@]1(C)c1ccc(OCCN2CC(CF)C2)cc1 (single isomer, unassigned) [Example 108]
EC50: 0.0344 nM
ERalpha (WT) MCF7 HCS (S inf): −98%

Structure (SMILES): CS(=O)(=O)N1CCc2cc(O)ccc2[C@@H]1c1ccc(OCCN2CC(CF)C2)cc1 (single isomer, unassigned) [Example 109]
EC50: ≥ 100 nM

Structure (SMILES): Oc1ccc2c(c1)CC[C@H](c1ccccc1)[C@@H]2c1ccc(OCCN2CCCC2)cc1 [lasofoxifene, (5R,6S)-6-phenyl-5-(4-(2-(pyrrolidin-1-yl)ethoxy)phenyl)-5,6,7,8-tetrahydronaphthalen-2-ol, reference compound]
ERalpha (WT) MCF7 HCS (S inf): −73.5%

Structure (SMILES): FCC1CN(CCOc2ccc([C@H]3c4ccc(N5CCOCC5)cc4CCN3CC(F)(F)F)cc2)C1 [Example 147, 4-[(1S)-1-[4-[2-[3-(fluoromethyl)azetidin-1-yl]ethoxy]phenyl]-2-(2,2,2-trifluoroethyl)-3,4-dihydro-1H-isoquinolin-6-yl]morpholine]
EC50: ≥ 100 nM

Structure (SMILES): C[C@H]1Cc2cc(O)ccc2[C@H](c2ccc(OCCN3CC(CF)C3)cc2)N1CC(F)(F)F (single isomer, unassigned) [Example 131]
EC50: 1.4 nM
ERalpha (WT) MCF7 HCS (S inf): −96%

Structure (SMILES): C[C@@H]1Cc2cc(C(=O)O)ccc2[C@@H](c2ccc(OCCN3CC(CF)C3)cc2)N1CC(F)(F)F (single isomer, unassigned) [Example 164]
EC50: 1.3 nM
ERalpha (WT) MCF7 HCS (S inf): −100%

Structure (SMILES): C[C@]1(c2ccc(OCCN3CC(CF)C3)cc2)c2ccc(O)cc2CCN1CC(F)(F)CO [Example 129, (S)-2-(2,2-difluoro-3-hydroxypropyl)-1-(4-(2-(3-(fluoromethyl)azetidin-1-yl)ethoxy)phenyl)-1-methyl-1,2,3,4-tetrahydroisoquinolin-6-ol]
EC50: 2.7 nM
ERalpha (WT) MCF7 HCS (S inf): −101%

Structure (SMILES): C[C@@H]1Cc2cc(CO)ccc2[C@@H](c2ccc(NC3CN(CCCF)C3)cc2)N1CC(F)(F)F (single isomer, unassigned) [Example 170]
EC50: 0.088 nM
ERalpha (WT) MCF7 HCS (S inf): −100%

Structure (SMILES): CC1(C)Cc2cc(O)ccc2C(c2ccc(OCCN3CC(CF)C3)cc2)N1CC(F)(F)F (single isomer, unassigned) [Example 158]
EC50: 0.042 nM
ERalpha (WT) MCF7 HCS (S inf): −96%

Structure (SMILES): C[C@@H]1CCN(CCOc2ccc([C@]3(C)c4ccc(O)cc4CCN3CC(C)(C)F)cc2)C1 [Example 126, (R)-2-(2-fluoro-2-methylpropyl)-1-methyl-1-(4-(2-((R)-3-methylpyrrolidin-1-yl)ethoxy)phenyl)-1,2,3,4-tetrahydroisoquinolin-6-ol]
EC50: 0.24 nM
ERalpha (WT) MCF7 HCS (S inf): −68%

Structure (SMILES): C[C@H]1Cc2cc(C(C)(C)O)ccc2[C@H](c2ccc(OCCN3CC(CF)C3)cc2)N1CC(F)(F)F [Example 162, 2-((1S,3S)-1-(4-(2-(3-(Fluoromethyl)azetidin-1-yl)ethoxy)phenyl)-3-methyl-2-(2,2,2-trifluoroethyl)-1,2,3,4-tetrahydroisoquinolin-6-yl)propan-2-ol]
EC50: 280 nM

Continued, values first:

EC50: 100 nM
ERalpha (WT) MCF7 HCS (S inf): −100%
Structure (SMILES): OCc1ccc2c(c1)CCN(CC(F)(F)F)C2c1ccc(OCCN2CC(CF)C2)cc1 (single isomer, unassigned) [Example 149]

EC50: 0.066 nM
ERalpha (WT) MCF7 HCS (S inf): −105%
Structure (SMILES): C[C@@H]1Cc2cc(O)ccc2[C@@H](c2ccc(OCCN3CC(CF)C3)cc2)N1CC(F)(F)CO [Example 166, (1R,3R)-2-(2,2-Difluoro-3-hydroxypropyl)-1-(4-(2-(3-(fluoromethyl)azetidin-1-yl)ethoxy)phenyl)-3-methyl-1,2,3,4-tetrahydroisoquinolin-6-ol]

EC50: 31 nM
ERalpha (WT) MCF7 HCS (S inf): −70%
Structure (SMILES): C[C@H]1Cc2ccccc2[C@H](c2ccc(OCCN3CC(CF)C3)cc2)N1CC(F)(F)F (single isomer, unassigned) [Example 155]

EC50: 29 nM
ERalpha (WT) MCF7 HCS (S inf): −79%
Structure (SMILES): NC(=O)c1ccc2c(c1)CCN(CC(F)(F)F)[C@@H]2c1ccc(OCCN2CC(CF)C2)cc1 [Example 142, (1R)-1-[4-[2-[3-(fluoromethyl)azetidin-1-yl]ethoxy]phenyl]-2-(2,2,2-trifluoroethyl)-3,4-dihydro-1H-isoquinoline-6-carboxamide]

EC50: 0.87 nM
ERalpha (WT) MCF7 HCS (S inf): −98%
Structure (SMILES): Oc1ccc2c(c1)CCN(c1ccccc1)C2c1ccc(OC2CN(CCCF)C2)cc1 (stereo not shown) [Example 102, 1-[4-[1-(3-fluoropropyl)azetidin-3-yl]oxyphenyl]-2-phenyl-3,4-dihydro-1H-isoquinolin-6-ol]

EC50: 18.1 nM
ERalpha (WT) MCF7 HCS (S inf): −70%
Structure (SMILES): C[C@H]1CN(S(C)(=O)=O)[C@H](c2ccc(OCCN3CC(CF)C3)cc2)c2ccc(O)cc21 [Example 121, (1R,4R)-1-[4-[2-[3-(fluoromethyl)azetidin-1-yl]ethoxy]phenyl]-4-methyl-2-methylsulfonyl-3,4-dihydro-1H-isoquinolin-6-ol]

EC50: 1.7 nM
ERalpha (WT) MCF7 HCS (S inf): −100%
Structure (SMILES): OCc1ccc2c(c1)CCN(CC(F)(F)F)[C@@H]2c1ccc(OCCN2CC(CF)C2)cc1 [Example 150, [(1R)-1-[4-[2-[3-(fluoromethyl)azetidin-1-yl]ethoxy]phenyl]-2-(2,2,2-trifluoroethyl)-3,4-dihydro-1H-isoquinolin-6-yl]methanol]

EC50: 0.043 nM
ERalpha (WT) MCF7 HCS (S inf): −99%
Structure (SMILES): C[C@@H]1Cc2cc(CO)ccc2[C@@H](c2ccc(OCCN3CC(CF)C3)cc2)N1CC(F)(F)F (single isomer, unassigned) [Example 159]
